One data set relates to L1210 Mouse Leukemia. Put plainly: Antitumor activity against L1210 mouse leukemia inoculated i.p. in mice. The note with it: for Survival days (mean ± standard deviation) / T/C (%): CDF₁ mice; for Survival rate: living mice on the 30th day / mice in group. In kind it is in vivo, CDF₁ mouse. The method, then:
Approximately 10⁵ cells of mouse leukemia L1210 which had been subcultured in DBA/2 mice were inoculated into the abdominal cavity of CDF₁ mouse (male, 6 weeks old, each group consisting of 6 to 10 mice). […] CDDP and CBDCA were tested as the positive control. Each complex tested was used in the form of a solution or suspension in 0.05% "Tween 80"-saline or in distilled water. Antitumor activity was evaluated based on the T/C value, calculated according to the following formula: [formula] The number of living mice was also recorded on the 30th day.

The next data set concerns Slc:ICR mice. Put plainly: Acute toxicity test in mice (LD50, Miller-Tainter method). In kind it is in vivo. Conditions: intraperitoneal, Slc:ICR mice (male), death rate on the 14th day. The method, then: The acute toxicity test of the compounds of the present invention to mice were carried out by using CDDP as the control. Platinum complexes to be tested was administered intraperitoneally to Slc:ICR mice (male, 5 weeks old, 6 mice/group). Each complex was used in the form of a solution or suspension in a 0.05% "Tween 80" - saline. The LD₅₀ value was calculated by the Miller-Tainter method from the death rate on the 14th day from the date of the administration.

Setting [1] is: dose 1 mg/kg i.p. on Day 1, 5 and 9.
Where [2] appears, read: dose 10 mg/kg i.p. on Day 1, 5 and 9.
[3] abbreviates: dose 25 mg/kg i.p. on Day 1, 5 and 9.
Setting [4] is: dose 50 mg/kg i.p. on Day 1, 5 and 9.
[5] abbreviates: dose 100 mg/kg i.p. on Day 1, 5 and 9.
[6] abbreviates: dose 200 mg/kg i.p. on Day 1, 5 and 9.
[7] abbreviates: dose 5 mg/kg i.p. on Day 1, 5 and 9.
The mark [8] stands for this setting: dose 2.5 mg/kg i.p. on Day 1, 5 and 9, 2.5 mg/kg.
[9] abbreviates: dose 5 mg/kg i.p. on Day 1, 5 and 9, 5 mg/kg.
Where [10] appears, read: dose 7.5 mg/kg i.p. on Day 1, 5 and 9, 7.5 mg/kg.

Several values for one entry are separate records, joined by “and”; a condition that tells them apart may be missing. Equal values may be shown once.

For `N.N.O=C([O-])C1(C(=O)[O-])CCC1.[Pt+2]` [CBDCA, Platinum(II) cis-diamine-1,1-cyclobutanedicarboxylate, reference compound], the “Survival days (mean ± standard deviation)” value in the data set on L1210 Mouse Leukemia (setting [1]) came to 8.3 ± 0.5 days; in the data set with L1210 Mouse Leukemia (setting [2]) it was 9.3 ± 0.5 days; in the data set on L1210 Mouse Leukemia (setting [3]), 10.1 ± 1.3 days; with L1210 Mouse Leukemia (setting [4]), 13.1 ± 2.3 days; in the data set with L1210 Mouse Leukemia (setting [5]) it was 14.1 ± 3.7 days; with L1210 Mouse Leukemia (setting [6]) it was 9.6 ± 0.7 days. Further, the “T/C (%)” value with L1210 Mouse Leukemia (setting [1]) was determined as 98%; with L1210 Mouse Leukemia (setting [2]) it was 109%; in the data set on L1210 Mouse Leukemia (setting [3]), 119%; with L1210 Mouse Leukemia (setting [4]) it was 156%; in the data set with L1210 Mouse Leukemia (setting [5]), 166%; with L1210 Mouse Leukemia (setting [6]), 113%. The Survival rate in the data set on L1210 Mouse Leukemia (setting [1]), in the data set with L1210 Mouse Leukemia (setting [2]), in the data set with L1210 Mouse Leukemia (setting [3]), in the data set on L1210 Mouse Leukemia (setting [4]), in the data set with L1210 Mouse Leukemia (setting [5]) and in the data set on L1210 Mouse Leukemia (setting [6]) was 0/10 each time.
For “[Pt(trans-ℓ-1,2-diaminocyclohexane)] (3-acetyl-6-methyl-2H-pyran-2,4(3H)-dione)₂·H₂O [Example 2]”, the “LD₅₀ Value” in the data set on Slc:ICR mice amounted to 61 mg/kg. Besides, the “Survival days (mean ± standard deviation)” value worked out at 8.7 ± 0.5 days in the data set with L1210 Mouse Leukemia (setting [1]); 13.8 ± 3.6 days with L1210 Mouse Leukemia (setting [2]); 19.7 ± 7.5 days in the data set on L1210 Mouse Leukemia (setting [3]); 10.0 ± 1.1 days in the data set on L1210 Mouse Leukemia (setting [4]); 6.3 ± 2.0 days in the data set on L1210 Mouse Leukemia (setting [5]); 2.8 ± 1.6 days with L1210 Mouse Leukemia (setting [6]). Moreover, the “T/C (%)” value in the data set on L1210 Mouse Leukemia (setting [1]) turned out to be 104%; in the data set with L1210 Mouse Leukemia (setting [2]) it was 164%; in the data set on L1210 Mouse Leukemia (setting [3]) it was 235%; with L1210 Mouse Leukemia (setting [4]), 119%; in the data set with L1210 Mouse Leukemia (setting [5]), 75%; in the data set with L1210 Mouse Leukemia (setting [6]), 33%. For the same compound, the Survival rate in the data set on L1210 Mouse Leukemia (setting [1]) is given as 0/6; in the data set on L1210 Mouse Leukemia (setting [2]), 0/6; in the data set on L1210 Mouse Leukemia (setting [3]), 1/6; in the data set on L1210 Mouse Leukemia (setting [4]) it was 0/6; in the data set on L1210 Mouse Leukemia (setting [5]), 0/6; in the data set on L1210 Mouse Leukemia (setting [6]) it was 0/6.
Regarding “[Pt(trans-ℓ-1,2-diaminocyclohexane)] (3-acetyl-6-methyltetrahydropyran-2,4-dione)₂·H₂O [Example 1]”, in the data set with Slc:ICR mice, the “LD₅₀ Value” came to 98 mg/kg. In addition, the “Survival days (mean ± standard deviation)” value in the data set with L1210 Mouse Leukemia (setting [1]) is listed as 8.5 ± 0.5 days; in the data set with L1210 Mouse Leukemia (setting [2]) it was 11.5 ± 1.2 days; in the data set with L1210 Mouse Leukemia (setting [3]), 14.2 ± 3.2 days; with L1210 Mouse Leukemia (setting [4]), 17.0 ± 3.0 days; in the data set on L1210 Mouse Leukemia (setting [5]) it was 15.5 ± 5.0 days; in the data set on L1210 Mouse Leukemia (setting [6]), 6.0 days. Besides, the “T/C (%)” value worked out at 101% with L1210 Mouse Leukemia (setting [1]); 137% with L1210 Mouse Leukemia (setting [2]); 169% in the data set with L1210 Mouse Leukemia (setting [3]); 202% with L1210 Mouse Leukemia (setting [4]); 185% with L1210 Mouse Leukemia (setting [5]); 71% in the data set on L1210 Mouse Leukemia (setting [6]). Moreover, the Survival rate with L1210 Mouse Leukemia (setting [1]), with L1210 Mouse Leukemia (setting [2]), in the data set with L1210 Mouse Leukemia (setting [3]), in the data set with L1210 Mouse Leukemia (setting [4]), with L1210 Mouse Leukemia (setting [5]) and with L1210 Mouse Leukemia (setting [6]) was 0/6 throughout.
For the compound “[Pt(trans-ℓ-1,2-diaminocyclohexane)](3-acetyl-6-methyl-2H-pyran-2,4(3H)-dione)(NO₃)·H₂O [Example 14]”, in the data set on Slc:ICR mice, the “LD₅₀ Value” is on record as 73 mg/kg. The “Survival days (mean ± standard deviation)” value came to 8.2 ± 0.4 days with L1210 Mouse Leukemia (setting [1]); 11.3 ± 0.8 days with L1210 Mouse Leukemia (setting [2]); 19.0 ± 8.5 days with L1210 Mouse Leukemia (setting [3]); 18.0 ± 6.2 days in the data set on L1210 Mouse Leukemia (setting [4]); 9.5 ± 1.2 days with L1210 Mouse Leukemia (setting [5]); 5.0 days in the data set on L1210 Mouse Leukemia (setting [6]). For the same compound, the “T/C (%)” value in the data set with L1210 Mouse Leukemia (setting [1]) stood at 98%; in the data set with L1210 Mouse Leukemia (setting [2]), 135%; in the data set with L1210 Mouse Leukemia (setting [3]), 226%; in the data set with L1210 Mouse Leukemia (setting [4]) it was 214%; in the data set on L1210 Mouse Leukemia (setting [5]), 113%; in the data set with L1210 Mouse Leukemia (setting [6]), 60%. The Survival rate with L1210 Mouse Leukemia (setting [1]) is on record as 0/6; in the data set with L1210 Mouse Leukemia (setting [2]), 0/6; in the data set with L1210 Mouse Leukemia (setting [3]), 2/6; in the data set with L1210 Mouse Leukemia (setting [4]), 1/6; in the data set on L1210 Mouse Leukemia (setting [5]) it was 0/6; in the data set on L1210 Mouse Leukemia (setting [6]), 0/6.
Consider “[Pt(trans-ℓ-1,2-diaminocyclohexane)](3-acetyl-6-methyltetrahydropyran-2,4-dione) (C₃H₇COO)·H₂O [Example 5]”, for which the “LD₅₀ Value” in the data set with Slc:ICR mice is 111 mg/kg. Also, the “Survival days (mean ± standard deviation)” value worked out at 8.8 ± 1.6 days in the data set with L1210 Mouse Leukemia (setting [1]); 10.2 ± 1.6 days in the data set on L1210 Mouse Leukemia (setting [2]); 11.8 ± 1.7 days with L1210 Mouse Leukemia (setting [3]); 16.3 ± 5.0 days in the data set with L1210 Mouse Leukemia (setting [4]); 14.2 ± 5.0 days in the data set on L1210 Mouse Leukemia (setting [5]). Besides, the “T/C (%)” value is reported as 104% in the data set with L1210 Mouse Leukemia (setting [1]); 120% in the data set with L1210 Mouse Leukemia (setting [2]); 139% in the data set with L1210 Mouse Leukemia (setting [3]); 192% in the data set with L1210 Mouse Leukemia (setting [4]); 167% in the data set on L1210 Mouse Leukemia (setting [5]). Moreover, the Survival rate in the data set on L1210 Mouse Leukemia (setting [1]), in the data set on L1210 Mouse Leukemia (setting [2]), with L1210 Mouse Leukemia (setting [3]), in the data set on L1210 Mouse Leukemia (setting [4]) and in the data set on L1210 Mouse Leukemia (setting [5]) was 0/6 throughout.
“[Pt(trans-ℓ-1,2-diaminocyclohexane)](3-acetyl-6-methyltetrahydropyran-2,4-dione)(CH₃COO)·H₂O [Example 3]”: in the data set on Slc:ICR mice, the “LD₅₀ Value” stood at 61 mg/kg. Also, the “Survival days (mean ± standard deviation)” value in the data set with L1210 Mouse Leukemia (setting [1]) stood at 9.2 ± 1.0 days; in the data set on L1210 Mouse Leukemia (setting [7]), 12.8 ± 3.0 days; with L1210 Mouse Leukemia (setting [2]) it was 14.0 ± 2.6 days; with L1210 Mouse Leukemia (setting [3]) it was 23.0 ± 6.4 days; with L1210 Mouse Leukemia (setting [4]) it was 15.2 ± 4.1 days; in the data set on L1210 Mouse Leukemia (setting [5]) it was 7.7 ± 1.5 days. Also, the “Survival days (mean ± standard deviation)” value in the data set with L1210 Mouse Leukemia (setting [6]) came out at 3.0 ± 2.0 days. Moreover, the “T/C (%)” value turned out to be 110% with L1210 Mouse Leukemia (setting [1]); 152% with L1210 Mouse Leukemia (setting [7]); 167% with L1210 Mouse Leukemia (setting [2]); 274% with L1210 Mouse Leukemia (setting [3]); 181% in the data set with L1210 Mouse Leukemia (setting [4]); 91% in the data set on L1210 Mouse Leukemia (setting [5]). The “T/C (%)” value in the data set on L1210 Mouse Leukemia (setting [6]) worked out at 36%. For the same compound, the Survival rate in the data set with L1210 Mouse Leukemia (setting [1]) was 0/6; in the data set on L1210 Mouse Leukemia (setting [7]), 0/6; with L1210 Mouse Leukemia (setting [2]), 0/6; in the data set on L1210 Mouse Leukemia (setting [3]), 2/6; with L1210 Mouse Leukemia (setting [4]), 0/6; with L1210 Mouse Leukemia (setting [5]), 0/6. For the same compound, the Survival rate in the data set on L1210 Mouse Leukemia (setting [6]) is given as 0/6.
In the case of “cis-diamminedichloroplatinum (II) [CDDP, reference compound]”, the “LD₅₀ Value” in the data set with Slc:ICR mice is 15.3 mg/kg. The “Survival days (mean ± standard deviation)” value was 15.2 ± 1.9 days and 12.0 ± 3.0 days and 13.0 ± 3.1 days and 10.5 ± 1.8 days with L1210 Mouse Leukemia (setting [8]); 18.5 ± 6.0 days and 14.3 ± 2.9 days and 18.2 ± 0.4 days and 15.5 ± 1.4 days in the data set on L1210 Mouse Leukemia (setting [9]); 17.0 ± 2.2 days and 15.5 ± 2.1 days and 20.2 ± 4.8 days and 22.3 ± 3.9 days with L1210 Mouse Leukemia (setting [10]). Further, the “T/C (%)” value in the data set on L1210 Mouse Leukemia (setting [8]) was 181% and 143% and 153% and 125%; with L1210 Mouse Leukemia (setting [9]), 220% and 170% and 214% and 185%; with L1210 Mouse Leukemia (setting [10]) it was 202% and 185% and 238% and 266%. The Survival rate is 0/6 with L1210 Mouse Leukemia (dose 2.5 mg/kg i.p. on Day 1, 5 and 9); 1/6 and 0/6 in the data set with L1210 Mouse Leukemia (setting [9]); 0/6 and 1/6 in the data set with L1210 Mouse Leukemia (setting [10]).

Values taken from patent publication EP0337459A2, “Platinum complex, process for preparing same and antitumor agent” (TORAY INDUSTRIES, INC., priority 1988, dated 1989).
